Source: ChEMBL document CHEMBL1201862, “PubChem BioAssay data set” (2004)
Active and inactive are the calls of the source.

Columns and labels:
HEK293 [1] = assay: cells; settings: Homo sapiens
HEK293 [2] = assay: cells; format: functional, cell-based; settings: Homo sapiens
HEK293 [3] = assay: cells; format: functional, cell-based; settings: Homo sapiens; remark: listed apart in the source
[4] = target: T1, Nucleotide-binding oligomerization domain-containing protein 2 (Homo sapiens, UniProt Q9HC29); assay: PubChem AID 2334; format: functional
T1 sequence (Q9HC29 whole entry, the tested form may be a part): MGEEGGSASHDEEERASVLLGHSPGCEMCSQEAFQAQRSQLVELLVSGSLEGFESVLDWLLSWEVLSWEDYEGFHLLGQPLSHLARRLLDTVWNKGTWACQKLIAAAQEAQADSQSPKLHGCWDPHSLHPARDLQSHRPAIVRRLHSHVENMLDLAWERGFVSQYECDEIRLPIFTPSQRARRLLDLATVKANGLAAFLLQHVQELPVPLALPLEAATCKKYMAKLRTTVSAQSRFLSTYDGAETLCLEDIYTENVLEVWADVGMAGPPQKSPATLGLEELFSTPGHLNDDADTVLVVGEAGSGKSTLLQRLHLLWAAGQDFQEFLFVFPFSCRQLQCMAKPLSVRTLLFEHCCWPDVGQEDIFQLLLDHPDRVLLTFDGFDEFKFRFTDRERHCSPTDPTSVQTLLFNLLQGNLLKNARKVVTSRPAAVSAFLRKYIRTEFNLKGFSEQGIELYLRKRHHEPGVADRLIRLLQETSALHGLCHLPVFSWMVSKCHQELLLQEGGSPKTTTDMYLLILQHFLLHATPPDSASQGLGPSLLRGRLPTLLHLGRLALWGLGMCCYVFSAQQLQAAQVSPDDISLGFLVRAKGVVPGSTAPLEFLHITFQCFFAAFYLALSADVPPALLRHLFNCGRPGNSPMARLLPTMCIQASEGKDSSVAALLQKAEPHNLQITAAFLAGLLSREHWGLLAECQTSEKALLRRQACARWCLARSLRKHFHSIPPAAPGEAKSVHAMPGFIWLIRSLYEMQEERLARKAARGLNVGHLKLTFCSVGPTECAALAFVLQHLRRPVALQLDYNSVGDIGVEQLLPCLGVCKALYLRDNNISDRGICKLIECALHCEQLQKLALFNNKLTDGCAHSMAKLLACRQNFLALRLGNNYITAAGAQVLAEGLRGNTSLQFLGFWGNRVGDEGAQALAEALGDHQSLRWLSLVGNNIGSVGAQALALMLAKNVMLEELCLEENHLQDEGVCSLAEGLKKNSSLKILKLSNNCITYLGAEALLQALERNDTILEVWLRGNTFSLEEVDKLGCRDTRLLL

Tumor necrosis factor = Tumor necrosis factor (Homo sapiens, UniProt P01375); assay: analog potency on TNFa NF-kB signaling – cell-based, revised, SAR follow-up (AID 2337); format: functional
HEK293 [5] = assay: NOD2 signaling inhibitors in MDP-stimulated cells, cell-based, uHTS, luminescence (AID 2001); format: functional; settings: Homo sapiens
[6] = target: T1, Nucleotide-binding oligomerization domain-containing protein 2; assay: inhibition of NOD2-driven NF-kB reporter – cell-based, luminescence, uHTS, HEK293 (AID 1566); format: functional
HEK293 [7] = assay: inhibition of NOD1-driven NF-kB reporter – cell-based, luminescence, uHTS, primary screen (AID 1578); format: functional; settings: Homo sapiens
[8] = tested on: Streptococcus sp. 'group A'; assay: Streptococcus pyogenes SK(-)GAS viability under kanamycin – luminescence, BacTiterGlo, confirmation, counter-screen for streptokinase expression inhibitor project, dose response (AID 1900); format: functional, organism-based
HEK293 [9] = assay: cells; format: functional, cell-based; settings: Homo sapiens; remark: listed apart in the source
[10] = target: T2, Nucleotide-binding oligomerization domain-containing protein 1 (Homo sapiens, UniProt Q9Y239); assay: blockers of NOD1 pathway activity – revised, SAR follow-up (AID 2333); format: functional
T2 sequence (Q9Y239 whole entry): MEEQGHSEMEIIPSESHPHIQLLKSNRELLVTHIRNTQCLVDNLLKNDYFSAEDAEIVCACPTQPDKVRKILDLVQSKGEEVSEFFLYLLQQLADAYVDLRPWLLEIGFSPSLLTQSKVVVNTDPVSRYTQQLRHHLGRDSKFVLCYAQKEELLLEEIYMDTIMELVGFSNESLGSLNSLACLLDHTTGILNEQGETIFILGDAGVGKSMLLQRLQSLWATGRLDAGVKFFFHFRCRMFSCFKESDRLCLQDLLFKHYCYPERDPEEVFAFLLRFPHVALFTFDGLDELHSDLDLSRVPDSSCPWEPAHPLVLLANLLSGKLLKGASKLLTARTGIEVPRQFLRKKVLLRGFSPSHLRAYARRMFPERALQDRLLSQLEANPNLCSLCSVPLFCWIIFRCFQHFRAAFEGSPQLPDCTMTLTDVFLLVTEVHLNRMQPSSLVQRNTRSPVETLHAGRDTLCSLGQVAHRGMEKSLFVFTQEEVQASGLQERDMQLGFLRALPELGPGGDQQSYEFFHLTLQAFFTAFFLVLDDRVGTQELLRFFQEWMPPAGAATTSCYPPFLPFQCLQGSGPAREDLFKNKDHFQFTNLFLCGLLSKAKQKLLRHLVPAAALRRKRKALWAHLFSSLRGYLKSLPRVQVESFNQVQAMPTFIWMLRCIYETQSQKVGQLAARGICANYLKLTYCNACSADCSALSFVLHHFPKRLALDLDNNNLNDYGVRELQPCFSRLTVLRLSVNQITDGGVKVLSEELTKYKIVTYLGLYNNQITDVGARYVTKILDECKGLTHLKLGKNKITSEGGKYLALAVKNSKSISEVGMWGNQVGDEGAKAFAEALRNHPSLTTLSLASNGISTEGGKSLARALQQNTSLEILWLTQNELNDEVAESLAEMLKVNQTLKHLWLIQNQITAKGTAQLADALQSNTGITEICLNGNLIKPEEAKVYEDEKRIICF

Streptococcus = assay: GAS UMAA2166 growth inhibition – luminescence, BacTiterGlo, counter-screen for streptokinase expression inhibitor project, dose response (AID 1915); format: functional, organism-based;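 further: potency for reduction of bacterial viability or growth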
[11] = target: T3, Eukaryotic translation initiation factor 2-alpha kinase 3 (Homo sapiens, UniProt Q9NZJ5); assay: Dose response cell-based high-throughput screening assay to measure PERK inhibition. [Related pubchem assays: 1416 ]; format: functional
T3 sequence (Q9NZJ5 whole entry): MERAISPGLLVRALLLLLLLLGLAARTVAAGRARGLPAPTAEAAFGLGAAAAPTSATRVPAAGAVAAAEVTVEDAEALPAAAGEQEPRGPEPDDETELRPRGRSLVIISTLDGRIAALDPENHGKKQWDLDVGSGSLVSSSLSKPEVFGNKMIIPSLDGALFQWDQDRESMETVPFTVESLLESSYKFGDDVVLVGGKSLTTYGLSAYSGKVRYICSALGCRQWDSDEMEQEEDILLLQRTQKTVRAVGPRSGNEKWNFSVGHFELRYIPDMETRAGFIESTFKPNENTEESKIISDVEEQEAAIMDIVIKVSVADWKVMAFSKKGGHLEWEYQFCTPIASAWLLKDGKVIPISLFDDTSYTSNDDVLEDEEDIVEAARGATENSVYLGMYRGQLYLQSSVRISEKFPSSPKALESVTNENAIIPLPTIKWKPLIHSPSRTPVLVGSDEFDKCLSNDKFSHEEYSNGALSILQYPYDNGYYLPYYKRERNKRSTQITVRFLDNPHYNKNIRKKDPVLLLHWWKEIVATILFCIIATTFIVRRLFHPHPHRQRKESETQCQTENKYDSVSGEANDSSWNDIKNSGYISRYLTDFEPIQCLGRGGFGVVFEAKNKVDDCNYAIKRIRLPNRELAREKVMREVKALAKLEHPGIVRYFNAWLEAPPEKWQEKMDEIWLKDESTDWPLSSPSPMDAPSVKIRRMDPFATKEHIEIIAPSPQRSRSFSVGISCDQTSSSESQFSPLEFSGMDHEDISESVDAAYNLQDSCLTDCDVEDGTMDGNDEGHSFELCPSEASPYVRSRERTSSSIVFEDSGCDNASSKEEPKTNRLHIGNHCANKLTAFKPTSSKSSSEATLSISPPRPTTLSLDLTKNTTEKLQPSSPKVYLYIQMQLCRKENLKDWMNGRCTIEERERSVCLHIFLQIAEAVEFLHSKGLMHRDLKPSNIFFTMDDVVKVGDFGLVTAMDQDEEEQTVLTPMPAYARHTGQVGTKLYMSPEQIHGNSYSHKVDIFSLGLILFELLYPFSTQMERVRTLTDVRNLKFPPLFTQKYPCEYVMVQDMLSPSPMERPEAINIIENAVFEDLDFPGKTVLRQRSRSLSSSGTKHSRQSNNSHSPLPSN

[12] = target: T3, Eukaryotic translation initiation factor 2-alpha kinase 3; assay: Counterscreen assay for PERK inhibitors: Dose response cell-based high throughput screening assay to measure inhibition of PERK at 6 hours. [Related pubchem assays: 1522, 1416 ]; format: functional
[13] = HPDE-C7 pancreatic duct cell viability loss – fluorescence, HTS (AID 430); format: functional, cell-based; settings: Homo sapiens
[14] = viability loss of HPDE-C7K cells – cell-based, fluorescence, HTS, primary screen (AID 431); format: functional; settings: Homo sapiens
HeLa = assay: Cytotoxicity counterscreen assay for transcriptional activators of heat shock protein 70 (Hsp70). [Related pubchem assays: 1203, 1252 ]; format: functional; settings: Homo sapiens;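 further: cells exposed to compound for 16 hours before readout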
[15] = target: Transitional endoplasmic reticulum ATPase (Homo sapiens, UniProt P55072); assay: p97 ATPase inhibitors, dose response, biochemical (AID 1534)
[16] = target: Transitional endoplasmic reticulum ATPase (Homo sapiens, UniProt P55072, C522A); assay: C522A mutant p97 ATPase inhibitors, dose response, counter-screen for p97 inhibitor project, biochemical, luminescence (AID 1544)
[17] = target: Eukaryotic translation initiation factor 4E (Mus musculus, UniProt P63073); assay: blockers of eIF4G binding by eIF4E – biochemical, TR-FRET, dose response (AID 855); format: functional;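 further: potency for disrupting eIF4E binding to eIF4GI seen as loss of FRET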
[18] = target: T4, Rac GTPase-activating protein 1 (Homo sapiens, UniProt Q9H0H5); assay: blockers of MgcRacGAP-driven Rac1 GTP hydrolysis – biochemical, ADP Hunter fluorescence, primary and confirmatory, confirmation (AID 624330); format: functional
T4 sequence (Q9H0H5 whole entry): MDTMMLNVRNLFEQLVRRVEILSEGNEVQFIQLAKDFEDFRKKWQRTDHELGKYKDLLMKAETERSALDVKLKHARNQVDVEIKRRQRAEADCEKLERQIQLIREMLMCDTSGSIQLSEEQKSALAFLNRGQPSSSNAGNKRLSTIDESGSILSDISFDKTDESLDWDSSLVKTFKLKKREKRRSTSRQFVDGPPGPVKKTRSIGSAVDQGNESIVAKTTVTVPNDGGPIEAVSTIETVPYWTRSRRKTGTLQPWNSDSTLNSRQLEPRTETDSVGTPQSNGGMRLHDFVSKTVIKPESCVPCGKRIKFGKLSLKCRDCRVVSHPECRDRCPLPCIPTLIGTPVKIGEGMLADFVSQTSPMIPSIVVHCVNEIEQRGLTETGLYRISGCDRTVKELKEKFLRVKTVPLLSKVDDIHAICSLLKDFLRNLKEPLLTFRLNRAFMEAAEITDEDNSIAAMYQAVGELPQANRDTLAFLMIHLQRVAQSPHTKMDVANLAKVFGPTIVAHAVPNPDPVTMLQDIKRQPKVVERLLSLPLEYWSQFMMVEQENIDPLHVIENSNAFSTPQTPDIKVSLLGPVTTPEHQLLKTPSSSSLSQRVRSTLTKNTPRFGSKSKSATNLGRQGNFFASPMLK

[19] = target: Peroxisome proliferator-activated receptor gamma/Nuclear receptor coactivator 3 (Homo sapiens, UniProt P37231); format: functional;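 further: agonist potency for raising coactivator recruitment to the receptor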
Peroxisome proliferator-activated receptor gamma/Nuclear receptor coactivator 3, sequence (P37231 whole entry): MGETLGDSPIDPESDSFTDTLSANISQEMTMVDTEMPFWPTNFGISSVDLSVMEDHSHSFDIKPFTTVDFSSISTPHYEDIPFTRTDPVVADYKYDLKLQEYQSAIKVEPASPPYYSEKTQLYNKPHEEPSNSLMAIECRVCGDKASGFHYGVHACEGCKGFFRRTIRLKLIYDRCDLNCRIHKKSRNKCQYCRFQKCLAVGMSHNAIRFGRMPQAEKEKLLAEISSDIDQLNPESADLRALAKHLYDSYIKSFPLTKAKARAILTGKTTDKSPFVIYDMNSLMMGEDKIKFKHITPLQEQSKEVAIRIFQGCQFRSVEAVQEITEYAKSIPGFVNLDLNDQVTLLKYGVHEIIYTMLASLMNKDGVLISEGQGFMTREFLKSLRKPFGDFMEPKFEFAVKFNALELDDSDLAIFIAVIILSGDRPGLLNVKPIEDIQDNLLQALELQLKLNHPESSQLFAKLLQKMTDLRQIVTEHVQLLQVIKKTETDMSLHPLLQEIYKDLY
Peroxisome proliferator-activated receptor gamma/Nuclear receptor coactivator 3, sequence (Q9Y6Q9 whole entry, further chain): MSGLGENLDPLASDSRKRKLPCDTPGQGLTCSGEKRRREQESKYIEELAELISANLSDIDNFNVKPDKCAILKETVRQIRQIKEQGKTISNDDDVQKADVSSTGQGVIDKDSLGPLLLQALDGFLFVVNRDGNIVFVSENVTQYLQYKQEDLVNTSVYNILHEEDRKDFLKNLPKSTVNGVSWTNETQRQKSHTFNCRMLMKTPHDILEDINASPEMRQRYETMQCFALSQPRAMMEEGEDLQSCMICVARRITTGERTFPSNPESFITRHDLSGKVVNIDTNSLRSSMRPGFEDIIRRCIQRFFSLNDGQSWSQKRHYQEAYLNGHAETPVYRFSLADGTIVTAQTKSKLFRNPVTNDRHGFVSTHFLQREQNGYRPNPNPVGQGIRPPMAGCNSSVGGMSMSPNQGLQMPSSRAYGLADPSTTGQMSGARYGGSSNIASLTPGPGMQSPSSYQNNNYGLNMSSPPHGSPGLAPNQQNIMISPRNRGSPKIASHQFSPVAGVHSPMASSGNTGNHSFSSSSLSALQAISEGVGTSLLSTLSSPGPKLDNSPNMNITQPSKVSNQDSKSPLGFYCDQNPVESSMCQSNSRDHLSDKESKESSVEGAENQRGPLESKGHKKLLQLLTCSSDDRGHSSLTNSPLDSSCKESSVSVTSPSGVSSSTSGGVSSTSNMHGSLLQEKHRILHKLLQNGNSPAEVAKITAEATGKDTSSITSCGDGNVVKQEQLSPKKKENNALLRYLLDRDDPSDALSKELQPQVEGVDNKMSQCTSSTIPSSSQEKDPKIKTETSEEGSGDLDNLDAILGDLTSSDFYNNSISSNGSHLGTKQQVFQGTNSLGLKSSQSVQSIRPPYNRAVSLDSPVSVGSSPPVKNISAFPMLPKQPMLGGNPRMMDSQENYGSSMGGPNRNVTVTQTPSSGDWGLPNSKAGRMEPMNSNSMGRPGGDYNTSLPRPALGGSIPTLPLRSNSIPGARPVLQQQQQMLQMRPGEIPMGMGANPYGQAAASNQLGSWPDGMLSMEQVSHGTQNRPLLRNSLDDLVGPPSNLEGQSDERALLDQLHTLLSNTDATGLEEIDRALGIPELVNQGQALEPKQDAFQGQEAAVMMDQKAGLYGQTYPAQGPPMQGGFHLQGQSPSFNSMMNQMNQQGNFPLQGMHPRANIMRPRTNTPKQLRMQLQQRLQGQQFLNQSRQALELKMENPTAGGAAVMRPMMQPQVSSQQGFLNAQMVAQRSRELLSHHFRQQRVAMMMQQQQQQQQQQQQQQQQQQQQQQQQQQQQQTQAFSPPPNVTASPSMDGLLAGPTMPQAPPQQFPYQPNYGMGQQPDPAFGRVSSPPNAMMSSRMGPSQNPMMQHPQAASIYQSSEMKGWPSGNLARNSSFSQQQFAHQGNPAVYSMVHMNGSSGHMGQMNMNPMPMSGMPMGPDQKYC

[20] = target: Peroxisome proliferator-activated receptor gamma/Nuclear receptor coactivator 2 (Homo sapiens, UniProt P37231); format: functional;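 further: agonist potency for raising coactivator recruitment to the receptor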
Peroxisome proliferator-activated receptor gamma/Nuclear receptor coactivator 2, sequence (P37231 whole entry): as the sequence (P37231 whole entry) above
Peroxisome proliferator-activated receptor gamma/Nuclear receptor coactivator 2, sequence (Q15596 whole entry, further chain): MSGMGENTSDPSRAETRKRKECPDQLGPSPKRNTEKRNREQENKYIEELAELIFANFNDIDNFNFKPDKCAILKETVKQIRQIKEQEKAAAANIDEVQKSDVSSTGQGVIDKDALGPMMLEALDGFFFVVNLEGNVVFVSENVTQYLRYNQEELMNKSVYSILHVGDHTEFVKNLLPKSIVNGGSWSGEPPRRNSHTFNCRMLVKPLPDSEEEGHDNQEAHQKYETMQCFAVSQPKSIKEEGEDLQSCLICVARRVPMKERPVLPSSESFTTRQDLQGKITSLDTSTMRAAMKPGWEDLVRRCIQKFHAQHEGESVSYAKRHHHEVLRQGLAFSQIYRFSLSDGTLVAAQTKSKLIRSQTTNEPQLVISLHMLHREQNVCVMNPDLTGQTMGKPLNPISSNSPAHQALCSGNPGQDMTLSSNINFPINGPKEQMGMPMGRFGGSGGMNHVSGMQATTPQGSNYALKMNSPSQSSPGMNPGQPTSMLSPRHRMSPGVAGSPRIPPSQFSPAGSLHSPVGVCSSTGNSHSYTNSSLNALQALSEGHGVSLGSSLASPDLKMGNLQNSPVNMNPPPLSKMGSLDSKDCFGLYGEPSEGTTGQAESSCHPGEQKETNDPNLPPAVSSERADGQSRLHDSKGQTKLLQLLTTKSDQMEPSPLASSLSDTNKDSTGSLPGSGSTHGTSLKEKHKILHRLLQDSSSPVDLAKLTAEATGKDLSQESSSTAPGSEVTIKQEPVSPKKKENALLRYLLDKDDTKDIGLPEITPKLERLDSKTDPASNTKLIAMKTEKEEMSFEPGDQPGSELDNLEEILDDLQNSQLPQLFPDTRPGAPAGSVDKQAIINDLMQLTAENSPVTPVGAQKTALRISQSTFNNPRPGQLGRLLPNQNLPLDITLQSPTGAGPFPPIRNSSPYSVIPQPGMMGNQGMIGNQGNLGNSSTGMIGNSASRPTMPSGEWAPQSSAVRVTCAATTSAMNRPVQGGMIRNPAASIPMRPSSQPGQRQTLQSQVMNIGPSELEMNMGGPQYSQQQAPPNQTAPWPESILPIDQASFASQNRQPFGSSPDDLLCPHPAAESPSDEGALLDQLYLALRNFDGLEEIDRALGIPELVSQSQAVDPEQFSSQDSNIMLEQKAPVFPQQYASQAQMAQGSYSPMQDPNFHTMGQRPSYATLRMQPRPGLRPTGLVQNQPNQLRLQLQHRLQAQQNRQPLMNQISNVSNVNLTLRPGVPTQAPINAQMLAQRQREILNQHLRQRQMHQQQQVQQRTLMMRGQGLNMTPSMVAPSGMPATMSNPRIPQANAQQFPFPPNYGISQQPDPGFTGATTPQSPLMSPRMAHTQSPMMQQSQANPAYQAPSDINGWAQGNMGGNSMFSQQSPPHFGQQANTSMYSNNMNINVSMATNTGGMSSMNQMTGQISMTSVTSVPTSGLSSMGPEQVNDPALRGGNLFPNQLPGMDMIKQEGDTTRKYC

[21] = target: T5, Calpain-2 catalytic subunit (Sus scrofa, UniProt P43367); assay: m-calpain protease blockers, concentration series – biochemical, fluorogenic peptide substrate, dose response (AID 1420); format: functional
T5 sequence (P43367 whole entry): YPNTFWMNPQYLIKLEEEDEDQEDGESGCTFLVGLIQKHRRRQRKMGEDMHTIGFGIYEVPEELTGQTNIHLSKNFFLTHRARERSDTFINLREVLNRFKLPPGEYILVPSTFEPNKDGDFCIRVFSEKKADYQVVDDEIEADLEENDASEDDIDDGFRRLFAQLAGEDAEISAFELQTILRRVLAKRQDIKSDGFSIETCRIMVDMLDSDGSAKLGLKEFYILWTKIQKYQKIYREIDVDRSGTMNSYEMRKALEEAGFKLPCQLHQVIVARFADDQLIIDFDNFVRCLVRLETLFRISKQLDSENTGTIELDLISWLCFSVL

[22] = target: Peroxisome proliferator-activated receptor gamma/Nuclear receptor coactivator 1 (Homo sapiens, UniProt P37231); format: functional;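 further: agonist potency as compounds enhance coactivator SRC-1 recruitment to PPARgamma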
[23] = target: Melanin-concentrating hormone receptor 1 (Homo sapiens, UniProt Q99705); assay: Late-stage fluorescence-based counterscreen for antagonists of the G-protein coupled receptor 7 (GPR7): cell-based dose response assay to identify antagonists of the melanin-concentrating hormone receptor 1 (MCHR1). [Related pubchem assays (depositor defined):AID1861, AID1880, AID1952, AID2148, AID2251, AID2257, AID485339]; format: functional;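 further: stimulated with 30 nM MCH peptide agonist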
Bcl-2-like protein 10 = Bcl-2-like protein 10 (Homo sapiens, UniProt Q9HD36); assay: Bcl-B/TR3 peptide binding disruption – biochemical, fluorescence polarization, FITC-TR3 peptide, selectivity assay for Bfl-1 inhibitor project, primary screen (AID 748);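 further: fluorescence polarization from a fluorescein-labelled TR3 peptide binding purified Bcl-B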

Cc1cc(NC(=O)c2ccc(C)s2)n(-c2nc3ccccc3[nH]2)n1
IC50 (HEK293 [1]): > 20 µM (inactive) | IC50 (HEK293 [2]): > 20 µM (inactive) | IC50 (HEK293 [3]): > 20 µM (inactive) | IC50 [4]: > 20 µM (inactive) | IC50 (Tumor necrosis factor): > 20 µM (inactive) | IC50 (HEK293 [5]): 4.57 µM (inactive) | EC50 [6]: > 20 µM (inactive) | EC50 (HEK293 [7]): 4.06 µM (active) | EC50 [8]: 3.04 µM (active) | IC50 (HEK293 [9]): > 20 µM (inactive) | IC50 [10]: > 20 µM (inactive) | EC50 (Streptococcus): 5.48 µM (active)

N#Cc1c(NCCO)ccc([N+](=O)[O-])c1NCCO
EC50 [11]: > 55.7 µM (not active) | EC50 [12]: > 55.7 µM (not active)

Cc1ccc(S(=O)(=O)Nc2ccc3oc(=O)sc3c2)c(C)c1
EC50 [13]: 12.8 µM (active) | EC50 [14]: 13.7 µM (active)

CCOC(=O)c1sc2nc(C)nc(Nc3ccccc3)c2c1C
CC50 (HeLa): > 99 µM (not active)

Cc1no[n+]([O-])c1COc1ccccc1/C=C1\NC(=S)NC1=O
IC50 [15]: > 50 µM (not active) | IC50 [16]: > 50 µM (not active)

COCC(=O)Nc1cccc(Br)c1
CC50 (HeLa): > 99 µM (not active)

O=C(C1CCN(Cc2cc(Cl)ccc2O)CC1)N1CCN(Cc2ccccc2)CC1
IC50 [17]: > 64 µM (inactive) | IC50 [18]: 81 µM (active)

CN(C)CC(c1ccccc1)c1ccccc1
EC50 [11]: > 55.7 µM (not active) | EC50 [12]: > 55.7 µM (not active)

CCc1cc2c(=O)c(-c3nc(C)cs3)coc2cc1OC(C)C(=O)NCCO (stereo not drawn)
EC50 [19]: > 79.4 µM (not active) | EC50 [20]: > 79.4 µM (not active) | IC50 [21]: 3.22 µM (not active) | EC50 [22]: > 79.4 µM (not active)

COc1ccc(Oc2c(CO)cnn(-c3ccc(C(C)C)cc3)c2=O)cc1
IC50 [23]: 7.4 µM (active)

CC(C)C(=O)Nc1nc2ccccc2n1Cc1ccc(Cl)cc1
IC50 (HEK293 [1]): > 20 µM (inactive) | IC50 [4]: > 20 µM (inactive) | IC50 (Tumor necrosis factor): > 20 µM (inactive) | IC50 [10]: 16.7 µM (active)

CCOC(=O)c1sc2nccc(N(C)C)c2c1/N=C/N(C)C
EC50 [19]: > 79.4 µM (not active) | EC50 [20]: > 79.4 µM (not active) | EC50 [22]: > 79.4 µM (not active)

Cc1ccc(N2CN=c3s/c(=C\c4cccnc4)c(=O)n3C2)cc1
IC50 (Bcl-2-like protein 10): > 100 µM (inactive)

c1nnnn1C12CC3CC(CC(C3)C1)C2
IC50 (Bcl-2-like protein 10): > 100 µM (inactive)
